This is an account of results in patent US10612094B2, “Genetic markers for engraftment of human cardiac ventricular progenitor cells” (Procella Therapeutics AB, priority 2016, dated 2020).

In the assay the test system is human ventricular muscle organ strips. Kind of assay: Force generation of muscle strips from HVP-derived human muscle organ in response to electric stimulation. To be noted: muscle strips of 5-month graft, p<0.05 compared to control. An excerpt: One of the critical limitations for the utility of hPSCs for studies of human cardiac biology and disease is their lack of maturity and persistence of expression of fetal isoforms. […] Animals were sacrificed and the engrafted kidneys were removed for further analysis. The 5-month human graft was a hemisphere structure with the radius of 0.4 cm (diameter of 0.8 cm). […] In addition, muscle trips taken from our mature human muscle organ generated forces (0.36±0.04 mN) in response to electric stimulation and increased their force generation after treatment with a β-adrenergic agonist isoprenaline (0.51±0.02 mN, p<0.05 compared to control). Taken together, these studies indicate that the HVPs are capable of generating a fully functional, mature human ventricular muscle organ in vivo via a cell autonomous pathway, i.e., without the addition of other cells, genes, matrix proteins, or biomaterials.

Regarding `CC(C)NCC(O)c1ccc(O)c(O)c1` (stereo not shown) [isoprenaline], the “force generation after treatment with β-adrenergic agonist” value came to 0.51±0.02 mN.
